Data published in patent US20080280837A1, “Biologically Active Compounds with Anti-Angiogenic Properties” (priority 2004, published 2008).

Biological target: T1, Human SST5 somatostatin receptor (SSTR5) (Homo sapiens, UniProt P35346)
T1 construct: expressed in transfected cells; host or cells: HEK-293 EBNA
Assay: Filter plate assay for SST5 receptor, displacement of [125I]SST-14
Assay type: binding
Procedure, shortened: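 HEK-293 EBNA membranes expressing human SST5 (5.5 μg) incubated 60 min at 25 °C with 4 nM [125I]SST-14 and compound in pH 7.5 Tris/EGTA/MgCl2/sucrose buffer. Bound radioactivity collected on PEI-coated glass fiber filters and counted; triplicate 1:5 dilution series from 125 μM, non-specific binding with excess cold ligand.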

T1 sequence (P35346 whole entry): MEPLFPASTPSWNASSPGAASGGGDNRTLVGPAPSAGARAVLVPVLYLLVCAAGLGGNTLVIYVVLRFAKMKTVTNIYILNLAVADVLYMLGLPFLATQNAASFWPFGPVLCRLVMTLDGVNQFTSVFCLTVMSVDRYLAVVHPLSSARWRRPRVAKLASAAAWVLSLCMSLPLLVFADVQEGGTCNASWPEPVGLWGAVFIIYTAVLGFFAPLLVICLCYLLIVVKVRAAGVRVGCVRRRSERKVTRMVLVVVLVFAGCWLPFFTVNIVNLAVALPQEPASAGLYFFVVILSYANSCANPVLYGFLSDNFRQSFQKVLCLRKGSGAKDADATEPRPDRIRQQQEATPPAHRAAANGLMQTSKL

CSC1O[C@H](COCc2ccccc2)[C@@H](O)[C@@H](OCc2ccc3ccccc3c2)[C@H]1NC(=O)CCN (stereo partly drawn) [Compound 109]
SSTR5 Inhib 0.5 uM % (inhibition of binding of SST-14 to SSTR5): 44% | SSTR5 Inhib 10 uM % (inhibition of binding of SST-14 to SSTR5): 83%

COC[C@H]1OC(OCc2ccccc2)[C@H](NC(=O)CCCN)[C@@H](OCc2ccc(Cl)cc2)[C@@H]1O (stereo partly drawn) [Compound 110]
SSTR5 Inhib 0.5 uM % (inhibition of binding of SST-14 to SSTR5): 45% | SSTR5 Inhib 10 uM % (inhibition of binding of SST-14 to SSTR5): 83%

CSC1O[C@H](COCc2ccc(Cl)cc2)[C@@H](O)[C@@H](OCc2ccc(-c3ccccc3)cc2)[C@H]1NC(=O)CNC(=N)N (stereo partly drawn) [Compound 111]
SSTR5 Inhib 0.5 uM % (inhibition of binding of SST-14 to SSTR5): 36% | SSTR5 Inhib 10 uM % (inhibition of binding of SST-14 to SSTR5): 83%

COC[C@H]1OC(OCc2ccccc2)[C@H](NC(=O)CCNC(=N)N)[C@H](OCc2ccccc2)[C@@H]1O (stereo partly drawn) [Compound 112]
SSTR5 Inhib 0.5 uM % (inhibition of binding of SST-14 to SSTR5): 58% | SSTR5 Inhib 10 uM % (inhibition of binding of SST-14 to SSTR5): 83%

COC[C@H]1OC(OCc2ccc(Cl)cc2)[C@H](NC(=O)CCCN)[C@@H](OCc2cccc(O)c2)[C@@H]1O (stereo partly drawn) [Compound 113]
SSTR5 Inhib 0.5 uM % (inhibition of binding of SST-14 to SSTR5): 50% | SSTR5 Inhib 10 uM % (inhibition of binding of SST-14 to SSTR5): 83%

CSC1O[C@H](COCc2ccc3ccccc3c2)[C@@H](O)[C@@H](OCc2ccc3ccccc3c2)[C@H]1NC(=O)CCNC(=N)N (stereo partly drawn) [Compound 114]
SSTR5 Inhib 0.5 uM % (inhibition of binding of SST-14 to SSTR5): 47% | SSTR5 Inhib 10 uM % (inhibition of binding of SST-14 to SSTR5): 82%

COC1C(O)C(COCc2ccc3ccccc3c2)OC(OCc2ccc3ccccc3c2)C1NC(=O)CCNC(=N)N (stereo not drawn) [Compound 115]
SSTR5 Inhib 0.5 uM % (inhibition of binding of SST-14 to SSTR5): 50% | SSTR5 Inhib 10 uM % (inhibition of binding of SST-14 to SSTR5): 82%

CSC1O[C@H](COCc2ccc3ccccc3c2)[C@@H](O)[C@@H](OCc2ccc(Cl)cc2)[C@H]1NC(=O)CNC(=N)N (stereo partly drawn) [Compound 116]
SSTR5 Inhib 0.5 uM % (inhibition of binding of SST-14 to SSTR5): 42% | SSTR5 Inhib 10 uM % (inhibition of binding of SST-14 to SSTR5): 82%

COC[C@H]1OC(OCc2ccc(Cl)cc2)[C@H](NC(=O)CCCN)[C@H](OCc2ccccc2)[C@@H]1O (stereo partly drawn) [Compound 117]
SSTR5 Inhib 0.5 uM % (inhibition of binding of SST-14 to SSTR5): 46% | SSTR5 Inhib 10 uM % (inhibition of binding of SST-14 to SSTR5): 82%

CSC1O[C@H](COCc2ccccc2)[C@@H](O)[C@@H](OCc2ccc(Cl)cc2)[C@H]1NC(=O)CCNC(=N)N (stereo partly drawn) [Compound 118]
SSTR5 Inhib 0.5 uM % (inhibition of binding of SST-14 to SSTR5): 37% | SSTR5 Inhib 10 uM % (inhibition of binding of SST-14 to SSTR5): 81%

COC[C@H]1OC(OCc2ccccc2)[C@H](NC(=O)CNC(=N)N)[C@H](OCc2ccc(-c3ccccc3)cc2)[C@@H]1O (stereo partly drawn) [Compound 119]
SSTR5 Inhib 0.5 uM % (inhibition of binding of SST-14 to SSTR5): 37% | SSTR5 Inhib 10 uM % (inhibition of binding of SST-14 to SSTR5): 81%

COC[C@H]1OC(OCc2ccc(-c3ccccc3)cc2)[C@H](NC(=O)CCCNC(=N)N)[C@@H](OCc2ccc(Cl)cc2)[C@@H]1O (stereo partly drawn) [Compound 120]
SSTR5 Inhib 0.5 uM % (inhibition of binding of SST-14 to SSTR5): 46% | SSTR5 Inhib 10 uM % (inhibition of binding of SST-14 to SSTR5): 81%

CO[C@H]1[C@H](O)[C@@H](COCc2ccc3ccccc3c2)OC(OCc2ccc(Cl)cc2)[C@@H]1NC(=O)CCCN (stereo partly drawn) [Compound 121]
SSTR5 Inhib 0.5 uM % (inhibition of binding of SST-14 to SSTR5): 32% | SSTR5 Inhib 10 uM % (inhibition of binding of SST-14 to SSTR5): 81%

CO[C@H]1[C@H](O)[C@@H](COCc2ccc(Cl)cc2)OC(OCc2ccc(Cl)cc2)[C@@H]1NC(=O)CCCN (stereo partly drawn) [Compound 122]
SSTR5 Inhib 0.5 uM % (inhibition of binding of SST-14 to SSTR5): 39% | SSTR5 Inhib 10 uM % (inhibition of binding of SST-14 to SSTR5): 81%

COC[C@H]1OC(OCc2ccc(Cl)cc2)[C@H](NC(=O)CCNC(=N)N)[C@@H](OCc2ccc(Cl)cc2)[C@@H]1O (stereo partly drawn) [Compound 123]
SSTR5 Inhib 0.5 uM % (inhibition of binding of SST-14 to SSTR5): 40% | SSTR5 Inhib 10 uM % (inhibition of binding of SST-14 to SSTR5): 81%
